Test results: patent US12521395B2, “Gem-disubstituted heterocyclic compounds and their use as IDH inhibitors” (NERVIANO MEDICAL SCIENCES S.R.L., priority 2019, dated 2026)
pIC50: −log10 of the molar value.

Target: IDH1^R132C (Homo sapiens, UniProt O75874, R132C)
Assay: NADPH depletion assay (diaphorase/resazurin), IDH1 R132C
Assay type: biochemical
Conditions: IDH1^R132C 2 nM, alpha-ketoglutarate 0.14 mM; read-out: IDH1^R132C IC50
Method: IDH mutated enzyme activity converting alpha-ketoglutarate to 2-hydroxyglutaric acid is measured using a NADPH depletion assay. In the assay the remaining cofactor is measured at the end of the reaction with the addition of a catalytic excess of diaphorase and resazurin, to generate a fluorescent signal in proportion to the amount of NADPH remaining. IDH1 WT enzyme as well as mutated isoforms IDH1^R132H, IDH1^R132C, and IDH2^R172K enzymes are commercially available proteins (see e.g. Sino Biological, Abcam, Active Motif or Creative BioMart).
IDH1^R132H homodimer enzyme are diluted to 8 nM, in 10 μL of Assay Buffer (150 mM NaCl, 50 mM Tris-HCl pH 7.6, 10 mM MgCl2, 0.001% Triton X-100, 4 mM β-mercaptoethanol); 0.2 μL of test compound, previously serially diluted 1 to 3, >10 experimental points from 1 mM in DMSO, is added and the mixture is incubated for 15 minutes at room temperature. The reaction is started with the addition of 10 μL of Substrate Mix (12 μM NADPH, 3.4 mM alpha-ketoglutarate in Assay Buffer) and the mixture is incubated for 60 minutes at room temperature. The reaction is terminated with the addition of 5 μl of Detection Buffer (100 μg/mL diaphorase, 30 μM resazurin, in IX Assay Buffer), and is incubated for 15 minutes before reading on a ViewLux as platereader at Ex544/Em590.
Compounds are assayed for their activity against IDH1^R132C following the same assay as above with the following modifications: IDH1^R132C and alpha-ketoglutarate final concentrations in the Assay Buffer is 2 nM and 0.14 mM, respectively.

Sequence of IDH1^R132C (O75874 whole entry R132C): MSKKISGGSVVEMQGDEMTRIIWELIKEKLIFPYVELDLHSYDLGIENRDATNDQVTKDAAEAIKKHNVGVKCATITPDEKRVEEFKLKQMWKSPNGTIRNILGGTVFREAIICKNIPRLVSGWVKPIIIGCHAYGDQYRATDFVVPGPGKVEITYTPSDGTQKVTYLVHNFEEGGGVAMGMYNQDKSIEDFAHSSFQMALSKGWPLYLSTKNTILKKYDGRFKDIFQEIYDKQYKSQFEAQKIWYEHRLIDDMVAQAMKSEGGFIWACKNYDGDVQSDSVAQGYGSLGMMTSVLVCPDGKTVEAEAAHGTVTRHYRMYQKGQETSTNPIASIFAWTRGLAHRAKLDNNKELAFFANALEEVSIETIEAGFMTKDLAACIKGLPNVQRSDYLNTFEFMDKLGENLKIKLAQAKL

Compound	pIC50
CC#CC(=O)N1CCN(C2(c3ccc([C@H](C)Nc4ncc5ccc(=O)n(C(C)C)c5n4)cc3)CCOCC2)CC1 [cpd 5, 2-{[(1S)-1-(4-{4-[4-(but-2-ynoyl)piperazin-1-yl]tetrahydro-2H-pyran-4-yl}phenyl)ethyl]amino}-8-(propan-2-yl)pyrido[2,3-d]pyrimidin-7(8H)-one]	5.83
C=CC(=O)N1CCN(C2(c3ccc([C@H](C)Nc4nc(C)c5ccc(=O)n(C(C)C)c5n4)cc3)CCOCC2)CC1 [cpd 13, 2-{[(1S)-1-{4-[4-(4-acryloylpiperazin-1-yl)tetrahydro-2H-pyran-4-yl]phenyl}ethyl]amino}-4-methyl-8-(propan-2-yl) pyrido[2,3-d]pyrimidin-7(8H)-one]	7.27
C=CC(=O)N1CCN(C2(c3ccc([C@H](C)Nc4ncc5c(C)cc(=O)n(C(C)C)c5n4)cc3)CCOCC2)CC1 [cpd 18, 2-{[(1S)-1-{4-[4-(4-acryloylpiperazin-1-yl)tetrahydro-2H-pyran-4-yl]phenyl}ethyl]amino}-5-methyl-8-(propan-2-yl) pyrido[2,3-d]pyrimidin-7(8H)-one]	7.62
C=C(C)C(=O)N1CCN(C2(c3ccc([C@H](C)Nc4ncc5ccc(=O)n(C(C)C)c5n4)cc3)CCOCC2)CC1 [cpd 21, 2-{[(1S)-1-(4-{4-[4-(2-methylacryloyl)piperazin-1-yl]tetrahydro-2H-pyran-4-yl}phenyl)ethyl]amino}-8-(propan-2-yl) pyrido[2,3-d]pyrimidin-7(8H)-one]	6.04
C=CC(=O)N1CCN(C2(c3ccc([C@H](C)Nc4ncc5ccc(=O)n(C(C)C)c5n4)nc3)CCOCC2)CC1 [cpd 27, 2-{[(1S)-1-{5-[4-(4-acryloylpiperazin-1-yl)tetrahydro-2H-pyran-4-yl]pyridin-2-yl}ethyl]amino}-8-(propan-2-yl)pyrido[2,3-d]pyrimidin-7(8H)-one]	7.01
C=CC(=O)N1CCN(C2(c3ccc(CNc4ncc5ccc(=O)n(C(C)C)c5n4)cc3)CCOCC2)CC1 [cpd 31, 2-({4-[4-(4-acryloylpiperazin-1-yl)tetrahydro-2H-pyran-4-yl]benzyl}amino)-8-(propan-2-yl)pyrido[2,3-d]pyrimidin-7(8H)-one]	6.48
C=CC(=O)N1CCN(C2(c3ccc([C@H](C)Nc4ncc5ccc(=O)n(C(C)C)c5n4)cc3)CCN(C)CC2)CC1 [cpd 32, 2-{[(1S)-1-{4-[4-(4-acryloylpiperazin-1-yl)-1-methylpiperidin-4-yl]phenyl}ethyl]amino}-8-(propan-2-yl)pyrido[2,3-d]pyrimidin-7(8H)-one]	7.19
C=CC(=O)N1CCN(C2(c3ccc([C@H](C)Nc4ncc5ccc(=O)n(C(CC)CC)c5n4)cc3)CCOCC2)CC1 [cpd 35, 2-{[(1S)-1-{4-[4-(4-acryloylpiperazin-1-yl)tetrahydro-2H-pyran-4-yl]phenyl}ethyl]amino}-8-(pentan-3-yl)pyrido[2,3-d]pyrimidin-7(8H)-one]	8.40
C=CC(=O)N1CCN(C2(c3ccc([C@H](C)Nc4nc(N(C)C)c5ccc(=O)n(C(C)C)c5n4)cc3)CCOCC2)CC1 [cpd 36, 2-{[(1S)-1-{4-[4-(4-acryloylpiperazin-1-yl)tetrahydro-2H-pyran-4-yl]phenyl}ethyl]amino}-4-(dimethylamino)-8-(propan-2-yl)pyrido[2,3-d]pyrimidin-7(8H)-one]	6.01
C=CC(=O)N1CCN(C2(c3ccc([C@H](C)Nc4nc(NC)c5ccc(=O)n(C(C)C)c5n4)cc3)CCOCC2)CC1 [cpd 37, 2-{[(1S)-1-{4-[4-(4-acryloylpiperazin-1-yl)tetrahydro-2H-pyran-4-yl]phenyl}ethyl]amino}-4-(methylamino)-8-(propan-2-yl)pyrido[2,3-d]pyrimidin-7(8H)-one]	6.00
CCN1CCN(C2(c3ccc([C@H](C)Nc4ncc5c(n4)N(CC)C(=O)OC5)cc3)CCOCC2)CC1 [cpd 45, 7-{[(1S)-1-{4-[4-(4-ethylpiperazin-1-yl)tetrahydro-2H-pyran-4-yl]phenyl}ethyl]amino}-1-ethyl-1,4-dihydro-2H-pyrimido[4,5-d][1,3]oxazin-2-one]	5.98
C=CC(=O)N1CCN(C(C)(CC)c2ccc([C@H](C)Nc3ncc4ccc(=O)n(C(C)C)c4n3)cc2)CC1 (stereo partly drawn) [cpd 46, 2-{[(1S)-1-{4-[2-(4-acryloylpiperazin-1-yl)butan-2-yl]phenyl}ethyl]amino}-8-(propan-2-yl)pyrido[2,3-d]pyrimidin-7(8H)-one]	7.89
C=C(F)C(=O)N1CCN(C2(c3ccc([C@H](C)Nc4ncc5ccc(=O)n(C(C)C)c5n4)cc3)CCOCC2)CC1 [cpd 54, 2-{[(1S)-1-(4-{4-[4-(2-fluoroacryloyl)piperazin-1-yl]tetrahydro-2H-pyran-4-yl}phenyl)ethyl]amino}-8-(propan-2-yl) pyrido[2,3-d]pyrimidin-7(8H)-one]	6.03
[2H]C([2H])([2H])C([2H])(n1c(=O)ccc2cnc(N[C@@H](C)c3ccc(C4(N5CCN(C(=O)C=C)CC5)CCOCC4)cc3)nc21)C([2H])([2H])[2H] [cpd 55, 2-{[(1S)-1-{4-[4-(4-acryloylpiperazin-1-yl)tetrahydro-2H-pyran-4-yl]phenyl}ethyl]amino}-8-[(^2H7)propan-2-yl]pyrido[2,3-d]pyrimidin-7(8H)-one]	7.96
C=CC(=O)NCC(=O)NC1(c2ccc([C@H](C)Nc3ncc4ccc(=O)n(C(C)C)c4n3)cc2)CCC(F)(F)CC1 [cpd 56, N-{2-[(4,4-difluoro-1-{4-[(1S)-1-{[7-oxo-8-(propan-2-yl)-7,8-dihydropyrido[2,3-d]pyrimidin-2-yl]amino}ethyl]phenyl}cyclohexyl)amino]-2-oxoethyl}prop-2-enamide]	6.49
C=CC(=O)N[C@H](C)C(=O)NC1(c2ccc([C@H](C)Nc3ncc4ccc(=O)n(C(C)C)c4n3)cc2)CCC(F)(F)CC1 [cpd 57, N2-acryloyl-N-(4,4-difluoro-1-{4-[(1S)-1-{[7-oxo-8-(propan-2-yl)-7,8-dihydropyrido[2,3-d]pyrimidin-2-yl]amino}ethyl]phenyl}cyclohexyl)-D-alaninamide]	6.27
C=CC(=O)N[C@@H](C)C(=O)NC1(c2ccc([C@H](C)Nc3ncc4ccc(=O)n(C(C)C)c4n3)cc2)CCC(F)(F)CC1 [cpd 58, N2-acryloyl-N-(4,4-difluoro-1-{4-[(1S)-1-{[7-oxo-8-(propan-2-yl)-7,8-dihydropyrido[2,3-d]pyrimidin-2-yl]amino}ethyl]phenyl}cyclohexyl)-L-alaninamide]	6.45
C=CC(=O)NCCNC1(c2ccc([C@H](C)Nc3ncc4ccc(=O)n(C(C)C)c4n3)cc2)CCOCC1 [cpd 59, N-{2-[(4-{4-[(1S)-1-{[7-oxo-8-(propan-2-yl)-7,8-dihydropyrido[2,3-d]pyrimidin-2-yl]amino}ethyl]phenyl}tetrahydro-2H-pyran-4-yl)amino]ethyl}prop-2-enamide]	6.82
CC(C)n1c(=O)ccc2cnc(N[C@@H](C)c3ccc(C4(N5CCN(C(=O)C(O)CO)CC5)CCC(F)(F)CC4)cc3)cc21 (stereo partly drawn) [cpd 60, 7-{[(1S)-1-(4-{1-[4-(2,3-dihydroxypropanoyl)piperazin-1-yl]-4,4-difluorocyclohexyl}phenyl)ethyl]amino}-1-(propan-2-yl)-1,6-naphthyridin-2(1H)-one]	7.15
C=CC(=O)N1CC(N(C)C2(c3ccc([C@H](C)Nc4cc5c(ccc(=O)n5C(C)C)cn4)cc3)CCC(F)(F)CC2)C1 [cpd 61, 7-{[(1S)-1-(4-{1-[(1-acryloylazetidin-3-yl)(methyl)amino]-4,4-difluorocyclohexyl}phenyl)ethyl]amino}-1-(propan-2-yl)-1,6-naphthyridin-2(1H)-one]	8.22
C=CC(=O)N1CC(N(C(C)=O)C2(c3ccc([C@H](C)Nc4cc5c(ccc(=O)n5C(C)C)cn4)cc3)CCC(F)(F)CC2)C1 [cpd 62, N-(1-acryloylazetidin-3-yl)-N-(4,4-difluoro-1-{4-[(1S)-1-{[2-oxo-1-(propan-2-yl)-1,2-dihydro-1,6-naphthyridin-7-yl]amino}ethyl]phenyl}cyclohexyl)acetamide]	8.70
C=CC(=O)N1CCN(C2(c3ccc([C@@H](C)Nc4cc5c(ccc(=O)n5C(C)C)cn4)cc3)CCC(F)(F)CC2)CC1 [cpd 63, 7-{[(1R)-1-{4-[1-(4-acryloylpiperazin-1-yl)-4,4-difluorocyclohexyl]phenyl}ethyl]amino}-1-(propan-2-yl)-1,6-naphthyridin-2(1H)-one]	7.26
CC(C)n1c(=O)ccc2cnc(N[C@@H](C)c3ccc(C4(N5CCN(C#N)CC5)CCOCC4)cc3)nc21 [cpd 65, 4-(4-{4-[(1S)-1-{[7-oxo-8-(propan-2-yl)-7,8-dihydropyrido[2,3-d]pyrimidin-2-yl]amino}ethyl]phenyl}tetrahydro-2H-pyran-4-yl)piperazine-1-carbonitrile]	6.52
C=CC(=O)NCCN(C(=O)C(F)(F)F)C1(c2ccc([C@H](C)Nc3ncc4ccc(=O)n(C(C)C)c4n3)cc2)CCOCC1 [cpd 66, N-{2-[(4-{4-[(1S)-1-{[7-oxo-8-(propan-2-yl)-7,8-dihydropyrido[2,3-d]pyrimidin-2-yl]amino}ethyl]phenyl}tetrahydro-2H-pyran-4-yl)(trifluoroacetyl)amino]ethyl}prop-2-enamide]	7.12
